From publication PMC4214736, “Identification of a Novel Drug Lead That Inhibits HCV Infection and Cell-to-Cell Transmission by Targeting the HCV E2 Glycoprotein” (PLoS ONE, 2014)

Legend:
[1] = target: T1, recombinant HCV E2 protein (Con1eE2, eE2) (Hepatitis C virus (isolate Con1), UniProt Q9WMX2); assay: SPR single concentration screen (Biacore T100, CM5 chip); type: binding; details: 200 µM ligand in PBS; E2 immobilised by amine coupling (about 10,000 RU)
T1 construct: E2 ectodomain residues 384-656 cut from the HCV genome polyprotein; C-terminal Protein A tag removed by PreScission protease; secreted from HEK293T cells (lentiviral)
T1 sequence (Q9WMX2 384-656): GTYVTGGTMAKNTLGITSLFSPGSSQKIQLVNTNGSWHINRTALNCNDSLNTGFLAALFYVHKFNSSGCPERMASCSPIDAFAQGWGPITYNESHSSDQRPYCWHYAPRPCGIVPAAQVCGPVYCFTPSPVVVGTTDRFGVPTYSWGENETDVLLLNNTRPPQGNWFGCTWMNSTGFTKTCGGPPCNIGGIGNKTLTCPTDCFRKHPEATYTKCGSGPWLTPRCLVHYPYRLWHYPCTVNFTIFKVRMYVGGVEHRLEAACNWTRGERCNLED
From the text: SPR single concentration screen (Biacore T100, CM5 chip) on recombinant HCV E2 protein (Con1eE2, eE2)

[2] = target: T1, recombinant HCV E2 protein (Con1eE2, eE2); assay: SPR single cycle kinetics (Biacore T100, CM5 chip); type: binding
his-tagged CD81-LEL = target: T2, his-tagged CD81-LEL (Homo sapiens, UniProt P60033); assay: SPR single cycle kinetics (Biacore T100, CM5 chip); type: binding
T2 construct: His-tagged, commercial (Bioclone Inc.)
T2 sequence (P60033 113-201 limits assumed): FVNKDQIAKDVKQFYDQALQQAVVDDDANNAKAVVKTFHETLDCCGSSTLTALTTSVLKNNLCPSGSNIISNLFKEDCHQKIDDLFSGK

[3] = target: T3, HCV E2 protein binding to GST-tagged human CD81-LEL (Hepatitis C virus (isolate Con1), UniProt Q9WMX2); assay: ELISA, inhibition of E2 binding to immobilised CD81-LEL
T3 construct: with CD81 antigen (Homo sapiens)
T3 sequence (Q9WMX2 384-656, one chain of several): as the sequence (Q9WMX2 384-656) above

[4] = target: HCV E2 protein Con1 eE2 (envelope protein 2 ectodomain, amino acids 384-656) (Hepatitis C virus, isolate Con1 (genotype 1)) (UniProt Q9WMX2); assay: SPR; Biacore T100; HCV E2 (1 µM in 10 mM sodium acetate pH 5) immobilised on a CM5 chip by amine coupling, about 10,000 RU; his-CD81 (50 nM) in PBS injected as positive control
HCV E2 protein Con1 eE2 (envelope protein 2 ectodomain, amino acids 384-656) (Hepatitis C virus, isolate Con1 (genotype 1)), sequence (Q9WMX2 384-656): as the sequence (Q9WMX2 384-656) above

For `COc1ccc(C2=CC(c3ccc(OC)c(OC)c3)c3c(c4ccccc4oc3=O)O2)cc1OC` (stereo not drawn) [compound 211490, NSC# 211490], the “Binding (RU)” value [1] was 102.9 RU.

With NSC# 144694 [compound 144694] the “Binding (RU)” value [1] was 118.8 RU.

Work on `CSc1ccc2c(c1)C(N1CCN(C)CC1)Cc1ccccc1S2` (stereo not drawn) [compound 281816, 1-methyl-4-(3-methylsulfanyl-5,6-dihydrobenzo[b] [1]benzothiepin-5-yl)piperazine] yielded a Kd [2] of 41 µM, a Kd (his-tagged CD81-LEL) of 57 µM and an IC50 [3] of 0.2 to 0.5 µM.

Compound “His-CD81-LEL (large extracellular loop of CD81, his-tagged) (domain or fragment)” has a response units bound [4] of 106 RU.

For `Nc1nc(N)nc(-c2ccccc2-c2nc(N)nc(N)n2)n1` [compound 4429, NSC# 4429], the “Binding (RU)” value [1] was 155.3 RU.

With `CC1(C)N=C(N)N=C(N)N1c1ccc(OCCCOc2ccccc2)c(Cl)c1.CCS(=O)(=O)O` [compound 133071, NSC# 133071] the “Binding (RU)” value [1] was 276.3 RU.

In the case of `Cc1nc(/N=C(/N)N(C)C)[nH]c(=O)c1C` [compound 113486, NSC# 113486], the “Binding (RU)” value [1] is reported as 104.7 RU.
